Results as given in ChEMBL document CHEMBL4033619, “Autophagy antagonizes apoptosis induced by flavan enantiomers from Daphne giraldii in hepatic carcinoma cells in vitro” (Eur J Med Chem, 2017).
Active and inactive are the calls of the source. The calls are words filed in the database; no cut-off is given here.

How the values were obtained:
[1] = test system: Hep 3B2; assay: Induction of apoptosis in human Hep3B cells assessed as increase in Bax level at 30 uM in presence of autophagy inhibitor bafilomycin A1 by Western blot analysis; assay type: functional, cell-based
[2] = test system: Hep 3B2; assay: Induction of apoptosis in human Hep3B cells assessed as increase in caspase 8 level at 30 uM in presence of autophagy inhibitor bafilomycin A1 by Western blot analysis; assay type: functional, cell-based
[3] = test system: Hep 3B2; assay: Induction of autophagy in human Hep3B cells assessed as increase in conversion of LC3-1 to LC3-2 at 10 to 60 uM by Western blot analysis; assay type: functional, cell-based
[4] = target: T1, AMP-activated protein kinase, AMPK (Homo sapiens) (UniProt P54646+O43741+P54619+Q9UGJ0+Q9Y478+Q13131+Q9UGI9); assay: Increase in AMPK phosphorylation at Thr172 in human Hep3B cells at 15 to 60 uM by Western blot analysis; assay type: cell-based
[5] = test system: Hep 3B2; assay: Induction of apoptosis in human Hep3B cells assessed as increase in Bax level by Western blot analysis; assay type: functional, cell-based
[6] = test system: Hep 3B2; assay: Induction of apoptosis in human Hep3B cells assessed as decrease in PARP level at 30 uM in presence of autophagy inhibitor bafilomycin A1 by Western blot analysis; assay type: functional, cell-based
[7] = test system: Hep 3B2; assay: Induction of apoptosis in human Hep3B cells assessed as nuclear fragmentaion at 30 uM after 48 hrs by Hoechst 33258 staining-based fluorescence microscopy; assay type: functional, cell-based
[8] = test system: MCF7; assay: Cytotoxicity against human MCF7 cells by MTT assay; assay type: functional, cell-based
[9] = test system: Hep 3B2; assay: Induction of apoptosis in human Hep3B cells assessed as cell shrinkage at 30 uM after 48 hrs by phase contrast microscopic analysis; assay type: functional, cell-based
[10] = test system: Hep 3B2; assay: Down regulation of AMPK expression in human Hep3B cells at 30 uM in presence of autophagy inhibitor bafilomycin A1 by Western blot analysis; assay type: functional, cell-based
[11] = test system: Hep 3B2; assay: Induction of apoptosis in human Hep3B cells assessed as membrane blebbing at 30 uM after 48 hrs by phase contrast microscopic analysis; assay type: functional, cell-based
[12] = test system: Hep 3B2; assay: Induction of apoptosis in human Hep3B cells assessed as chromatin condensation at 30 uM after 48 hrs by Hoechst 33258 staining-based fluorescence microscopy; assay type: functional, cell-based
[13] = test system: Hep 3B2; assay: Induction of autophagy in human Hep3B cells assessed as decrease in p62 level at 15 to 60 uM by Western blot analysis; assay type: functional, cell-based
[14] = test system: Hep 3B2; assay: Induction of apoptosis in human Hep3B cells assessed as increase in caspase 9 level by Western blot analysis; assay type: functional, cell-based
[15] = test system: A549; assay: Growth inhibition of human A549 cells after 48 hrs by MTT assay; assay type: functional, cell-based
[16] = test system: HepG2; assay: Growth inhibition of human HepG2 cells after 48 hrs by MTT assay; assay type: functional, cell-based
[17] = test system: Hep 3B2; assay: Growth inhibition of human Hep3B cells after 48 hrs by MTT assay; assay type: functional, cell-based
[18] = test system: Hep 3B2; assay: Induction of apoptosis in human Hep3B cells assessed as nuclear fragmentation at 30 uM in presence of autophagy inhibitor bafilomycin A1 by Hoechst 33258 staining-based fluorescence microscopy; assay type: functional, cell-based
[19] = test system: Hep 3B2; assay: Induction of apoptosis in human Hep3B cells assessed as increase in cleaved PARP level at 30 uM in presence of autophagy inhibitor bafilomycin A1 by Western blot analysis; assay type: functional, cell-based
[20] = test system: Hep 3B2; assay: Cytotoxicity against human Hep3B cells by MTT assay; assay type: functional, cell-based
[21] = test system: Hep 3B2; assay: Effect on AMPK expression in human Hep3B cells at 15 to 60 uM by Western blot analysis; assay type: functional, cell-based
[22] = test system: Hep 3B2; assay: Induction of apoptosis in human Hep3B cells assessed as increase in FADD level by Western blot analysis; assay type: functional, cell-based
[23] = test system: MCF7; assay: Growth inhibition of human MCF7 cells after 48 hrs by MTT assay; assay type: functional, cell-based
[24] = test system: Hep 3B2; assay: Cytotoxicity against human Hep3B cells assessed as reduction in cell growth at 30 uM in presence of autophagy inhibitor bafilomycin A1 by MTT assay; assay type: functional, cell-based
[25] = test system: Hep 3B2; assay: Induction of autophagy in human Hep3B cells at 30 uM after 48 hrs by MDC staining-based fluorescence microscopic method; assay type: functional, cell-based
[26] = test system: Hep 3B2; assay: Induction of apoptosis in human Hep3B cells assessed as increase in caspase 8 level by Western blot analysis; assay type: functional, cell-based
[27] = test system: Hep 3B2; assay: Induction of apoptosis in human Hep3B cells assessed as increase in FADD level at 30 uM in presence of autophagy inhibitor bafilomycin A1 by Western blot analysis; assay type: functional, cell-based
[28] = test system: A549; assay: Cytotoxicity against human A549 cells by MTT assay; assay type: functional, cell-based
[29] = test system: Hep 3B2; assay: Induction of apoptosis in human Hep3B cells assessed as effect on cleaved PARP level at 15 to 60 uM by Western blot analysis; assay type: functional, cell-based
[30] = target: T1, AMP-activated protein kinase, AMPK (Homo sapiens); assay: Increase in AMPK phosphorylation at Thr172 in human Hep3B cells at 30 uM in presence of autophagy inhibitor bafilomycin A1 by Western blot analysis; assay type: cell-based
[31] = test system: Hep 3B2; assay: Induction of apoptosis in human Hep3B cells assessed as decrease in PARP level at 15 to 60 uM by Western blot analysis; assay type: functional, cell-based
[32] = test system: Hep 3B2; assay: Induction of apoptosis in human Hep3B cells assessed as increase in caspase 7 level by Western blot analysis; assay type: functional, cell-based
[33] = test system: Hep 3B2; assay: Induction of apoptosis in human Hep3B cells assessed as increase in caspase 7 level at 30 uM in presence of autophagy inhibitor bafilomycin A1 by Western blot analysis; assay type: functional, cell-based
[34] = test system: HepG2; assay: Cytotoxicity against human HepG2 cells by MTT assay; assay type: functional, cell-based
[35] = test system: Hep 3B2; assay: Induction of apoptosis in human Hep3B cells assessed as chromatin condensation at 30 uM in presence of autophagy inhibitor bafilomycin A1 by Hoechst 33258 staining-based fluorescence microscopy; assay type: functional, cell-based
[36] = test system: Hep 3B2; assay: Induction of apoptosis in human Hep3B cells assessed as increase in caspase 9 level at 30 uM in presence of autophagy inhibitor bafilomycin A1 by Western blot analysis; assay type: functional, cell-based

## CC(C)=CCc1c([C@H]2CCc3ccc(O)cc3O2)cc2c(c1O)OC(C)(C)C=C2
[1]
  Activity: Active
[2]
  Activity: Active
[3]
  Activity: Active
[4]
  Activity: Active
[5]
  Activity: Dose-dependent effect
[6]
  Activity: Active
[7]
  Activity: Active
[8]
  IC50: > 100 µM
[9]
  Activity: Active
[10]
  Activity: Active
[11]
  Activity: Active
[12]
  Activity: Active
[13]
  Activity: Active
[14]
  Activity: Dose-dependent effect
[15]
  growth inhibition (GI): Dose-dependent effect
[16]
  growth inhibition (GI): Dose-dependent effect
[17]
  growth inhibition (GI): Dose-dependent effect
[18]
  Activity: Active
[19]
  Activity: Active
[20]
  IC50: 30.3 µM
[21]
  Activity: inactive
[22]
  Activity: Dose-dependent effect
[23]
  growth inhibition (GI): Dose-dependent effect
[24]
  Activity: Active
[25]
  Activity: Active
[26]
  Activity: Dose-dependent effect
[27]
  Activity: Active
[28]
  IC50: > 100 µM
[29]
  Activity: Active
[30]
  Activity: Active
[31]
  Activity: Active
[32]
  Activity: Dose-dependent effect
[33]
  Activity: Active
[34]
  IC50: 64.2 µM
[35]
  Activity: Active
[36]
  Activity: Active

## CC1(C)CCc2c([C@@H]3CCc4ccc(O)cc4O3)ccc(O)c2O1
[8]
  IC50: > 100 µM
[15]
  growth inhibition (GI): Dose-dependent effect
[16]
  growth inhibition (GI): Dose-dependent effect
[17]
  growth inhibition (GI): Dose-dependent effect
[20]
  IC50: 44.7 µM
[23]
  growth inhibition (GI): Dose-dependent effect
[28]
  IC50: > 100 µM
[34]
  IC50: > 100 µM

## CC(C)=CCc1c([C@@H]2CCc3ccc(O)cc3O2)ccc(O)c1O
[8]
  IC50: > 100 µM
[15]
  growth inhibition (GI): Dose-dependent effect
[16]
  growth inhibition (GI): Dose-dependent effect
[17]
  growth inhibition (GI): Dose-dependent effect
[20]
  IC50: 62.2 µM
[23]
  growth inhibition (GI): Dose-dependent effect
[28]
  IC50: > 100 µM
[34]
  IC50: > 100 µM

## CC(C)=CCc1c([C@H]2CCc3ccc(O)cc3O2)ccc(O)c1O [KAZINOL U]
[8]
  IC50: > 100 µM
[15]
  growth inhibition (GI): Dose-dependent effect
[16]
  growth inhibition (GI): Dose-dependent effect
[17]
  growth inhibition (GI): Dose-dependent effect
[20]
  IC50: 51.1 µM
[23]
  growth inhibition (GI): Dose-dependent effect
[28]
  IC50: > 100 µM
[34]
  IC50: > 100 µM

## CC(C)=CCc1c([C@@H]2CCc3ccc(O)cc3O2)cc2c(c1O)OC(C)(C)C=C2 [KAZINOL B]
[8]
  IC50: > 100 µM
[15]
  growth inhibition (GI): Dose-dependent effect
[16]
  growth inhibition (GI): Dose-dependent effect
[17]
  growth inhibition (GI): Dose-dependent effect
[20]
  IC50: 39 µM
[23]
  growth inhibition (GI): Dose-dependent effect
[28]
  IC50: > 100 µM
[34]
  IC50: 58.4 µM

## CC1(C)CCc2c(C3CCc4ccc(O)cc4O3)ccc(O)c2O1 (racemic)
[8]
  IC50: > 100 µM
[15]
  growth inhibition (GI): Dose-dependent effect
[16]
  growth inhibition (GI): Dose-dependent effect
[17]
  growth inhibition (GI): Dose-dependent effect
[20]
  IC50: 51 µM
[23]
  growth inhibition (GI): Dose-dependent effect
[28]
  IC50: > 100 µM
[34]
  IC50: > 100 µM

## CC1(C)C=Cc2c(C3CCc4ccc(O)cc4O3)ccc(O)c2O1 (racemic)
[8]
  IC50: > 100 µM
[15]
  growth inhibition (GI): Dose-dependent effect
[16]
  growth inhibition (GI): Dose-dependent effect
[17]
  growth inhibition (GI): Dose-dependent effect
[20]
  IC50: 57.4 µM
[23]
  growth inhibition (GI): Dose-dependent effect
[28]
  IC50: > 100 µM
[34]
  IC50: 92.8 µM

## CC1(C)CCc2c([C@H]3CCc4ccc(O)cc4O3)ccc(O)c2O1
[8]
  IC50: > 100 µM
[15]
  growth inhibition (GI): Dose-dependent effect
[16]
  growth inhibition (GI): Dose-dependent effect
[17]
  growth inhibition (GI): Dose-dependent effect
[20]
  IC50: 41.7 µM
[23]
  growth inhibition (GI): Dose-dependent effect
[28]
  IC50: > 100 µM
[34]
  IC50: > 100 µM

## O=c1[nH]cc(F)c(=O)[nH]1 [FLUOROURACIL]
[8]
  IC50: 30 µM
[20]
  IC50: 11.9 µM
[34]
  IC50: 32.6 µM

## CC(C)=CCc1c(C2CCc3ccc(O)cc3O2)cc2c(c1O)OC(C)(C)C=C2 (racemic)
[8]
  IC50: > 100 µM
[15]
  growth inhibition (GI): Dose-dependent effect
[16]
  growth inhibition (GI): Dose-dependent effect
[17]
  growth inhibition (GI): Dose-dependent effect
[20]
  IC50: 97.8 µM
[23]
  growth inhibition (GI): Dose-dependent effect
[28]
  IC50: 92.5 µM
[34]
  IC50: 92.3 µM

## CC1(C)C=Cc2c([C@H]3CCc4ccc(O)cc4O3)ccc(O)c2O1
[8]
  IC50: > 100 µM
[15]
  growth inhibition (GI): Dose-dependent effect
[16]
  growth inhibition (GI): Dose-dependent effect
[17]
  growth inhibition (GI): Dose-dependent effect
[20]
  IC50: 63.6 µM
[23]
  growth inhibition (GI): Dose-dependent effect
[28]
  IC50: > 100 µM
[34]
  IC50: > 100 µM

## CC1(C)C=Cc2c([C@@H]3CCc4ccc(O)cc4O3)ccc(O)c2O1
[8]
  IC50: > 100 µM
[15]
  growth inhibition (GI): Dose-dependent effect
[16]
  growth inhibition (GI): Dose-dependent effect
[17]
  growth inhibition (GI): Dose-dependent effect
[20]
  IC50: 75.7 µM
[23]
  growth inhibition (GI): Dose-dependent effect
[28]
  IC50: > 100 µM
[34]
  IC50: > 100 µM

## CC(C)=CCc1c(C2CCc3ccc(O)cc3O2)ccc(O)c1O (racemic)
[8]
  IC50: > 100 µM
[15]
  growth inhibition (GI): Dose-dependent effect
[16]
  growth inhibition (GI): Dose-dependent effect
[17]
  growth inhibition (GI): Dose-dependent effect
[20]
  IC50: 81.2 µM
[23]
  growth inhibition (GI): Dose-dependent effect
[28]
  IC50: > 100 µM
[34]
  IC50: > 100 µM
